Tested on: not listed separately
Assay: WST-1 proliferation assay, MCF-7
Assay type: cell-based
Conditions: human, MCF-7 cells (breast adenocarcinoma), vs 0.1% DMSO control = 100%, mean ± standard deviation
Description: (§1) A thorough analysis of antiproliferative activity was performed across various cell culture types representing different histotypes: leukemia (Jurkat, MOLT-4), lung adenocarcinoma (A549), colorectal adenocarcinoma (HT-29), pancreatic carcinoma (PANC-1), breast adenocarcinoma (MCF-7), osteosarcoma (SAOS-2), and one non-cancerous cell line (fetal lung fibroblasts MRC-5). The cell lines were exposed to the newly synthesized compounds at a concentration of 100 μM for 48 h in a single-dose treatment. Changes in cell proliferation compared to the vehicle 0.1% dimethyl sulfoxide (DMSO) control were determined using the WST-1 assay, which is based on mitochondrial dehydrogenase metabolic activities. […] The overall cytotoxic activity of each compound was expressed as growth percent (GP) – the mean of the proliferation of all cell lines treated with the same compound.
(§2) Selected human tumor and non-tumor cell lines Jurkat (acute T-cell leukemia), MOLT-4 (acute lymphoblastic leukemia), A549 (lung carcinoma), HT-29 (colorectal adenocarcinoma), PANC-1 (pancreas epithelioid carcinoma), MCF-7 (breast adenocarcinoma), SAOS-2 (osteosarcoma) and MRC-5 (normal lung fibroblasts) were purchased from either American Type Culture Collection (ATCC; VA, USA) or Sigma-Aldrich (St. Louis, MO, USA) and cultured according to the provider's culture method guidelines. All cell lines were maintained at 37 °C in a humidified 5% carbon dioxide and 95% air incubator. Cells in the maximum range of either 10 passages for the adherent cell lines (A549, HT-29, PANC-1, MCF-7, SAOS-2, and MRC-5), or 20 passages for suspension cell lines (Jurkat, MOLT-4,) and in an exponential growth phase were used for this study. Screening of the antiproliferative effect and growth percent calculation were conducted as follows: each cell line was seeded at previously established optimal density (1–50 × 10^3 cells per well) in a 96-well plate (TPP, Trasadingen, Switzerland) and cells were allowed to settle overnight. Cells were treated for 48 h with compounds at a final concentration of 100 μM. At the end of the cultivation period, the WST-1 proliferation assay (Roche, Basel, Switzerland) was performed according to the manufacturer's protocol. The absorbance was measured at 440 nm using a Tecan Spark multimode microplate reader (Tecan, Mannedorf, Switzerland). Each value is the mean of three independent experiments and represents the percentage of proliferation (100% cell proliferation for 0.1% DMSO mock-treated control cells). The GP value was calculated for each compound tested. GP represents the mean of the percentage proliferation decrease of all cell lines treated with the same compound.

Structure (SMILES)	viability at 48 h, 100 µM
COc1cc([N+](=O)[O-])ccc1OCC(O)CN1CCN(CCO)CC1 (stereo not shown) [Compound 1, 1-(4-(2-Hydroxyethyl)piperazin-1-yl)-3-(2-methoxy-4-nitrophenoxy)propan-2-ol]	100 ± 9%
COc1ccc(OCC(O)CN2CCN(CCO)CC2)c([N+](=O)[O-])c1 (stereo not shown) [Compound 2, 1-(4-(2-Hydroxyethyl)piperazin-1-yl)-3-(4-methoxy-2-nitrophenoxy)propan-2-ol]	97 ± 8%
O=[N+]([O-])c1ccc(OCC(O)CN2CCN(CCO)CC2)c(F)c1 (stereo not shown) [Compound 3, 1-(4-(2-Hydroxyethyl)piperazin-1-yl)-3-(2-fluoro-4-nitrophenoxy)propan-2-ol]	91 ± 12%
OCCN1CCN(CC(O)COc2ccc(F)cc2)CC1 (stereo not shown) [Compound 4, 1-(4-(2-Hydroxyethyl)piperazin-1-yl)-3-(4-fluorophenoxy)propan-2-ol]	102 ± 5%

Tested on: not listed separately
Assay: WST-1 proliferation assay, SAOS-2
Assay type: cell-based
Conditions: human, SAOS-2 cells (osteosarcoma), vs 0.1% DMSO control = 100%, mean ± standard deviation
Description: as §1, §2

Structure (SMILES)	viability at 48 h, 100 µM
COc1cc([N+](=O)[O-])ccc1OCC(O)CN1CCN(CCO)CC1 (stereo not shown) [Compound 1, 1-(4-(2-Hydroxyethyl)piperazin-1-yl)-3-(2-methoxy-4-nitrophenoxy)propan-2-ol]	101 ± 16%
COc1ccc(OCC(O)CN2CCN(CCO)CC2)c([N+](=O)[O-])c1 (stereo not shown) [Compound 2, 1-(4-(2-Hydroxyethyl)piperazin-1-yl)-3-(4-methoxy-2-nitrophenoxy)propan-2-ol]	103 ± 9%
O=[N+]([O-])c1ccc(OCC(O)CN2CCN(CCO)CC2)c(F)c1 (stereo not shown) [Compound 3, 1-(4-(2-Hydroxyethyl)piperazin-1-yl)-3-(2-fluoro-4-nitrophenoxy)propan-2-ol]	92 ± 14%
OCCN1CCN(CC(O)COc2ccc(F)cc2)CC1 (stereo not shown) [Compound 4, 1-(4-(2-Hydroxyethyl)piperazin-1-yl)-3-(4-fluorophenoxy)propan-2-ol]	102 ± 6%

Tested on: not listed separately
Assay: WST-1 proliferation assay, HT-29
Assay type: cell-based
Conditions: human, HT-29 cells (colorectal adenocarcinoma), vs 0.1% DMSO control = 100%, mean ± standard deviation
Description: as §1, §2

Structure (SMILES)	viability at 48 h, 100 µM
COc1cc([N+](=O)[O-])ccc1OCC(O)CN1CCN(CCO)CC1 (stereo not shown) [Compound 1, 1-(4-(2-Hydroxyethyl)piperazin-1-yl)-3-(2-methoxy-4-nitrophenoxy)propan-2-ol]	141 ± 42%
COc1ccc(OCC(O)CN2CCN(CCO)CC2)c([N+](=O)[O-])c1 (stereo not shown) [Compound 2, 1-(4-(2-Hydroxyethyl)piperazin-1-yl)-3-(4-methoxy-2-nitrophenoxy)propan-2-ol]	103 ± 3%
O=[N+]([O-])c1ccc(OCC(O)CN2CCN(CCO)CC2)c(F)c1 (stereo not shown) [Compound 3, 1-(4-(2-Hydroxyethyl)piperazin-1-yl)-3-(2-fluoro-4-nitrophenoxy)propan-2-ol]	94 ± 9%
OCCN1CCN(CC(O)COc2ccc(F)cc2)CC1 (stereo not shown) [Compound 4, 1-(4-(2-Hydroxyethyl)piperazin-1-yl)-3-(4-fluorophenoxy)propan-2-ol]	99 ± 3%

Tested on: not listed separately
Assay: WST-1 proliferation assay, A549
Assay type: cell-based
Conditions: human, A549 cells (lung carcinoma), vs 0.1% DMSO control = 100%, mean ± standard deviation
Description: as §1, §2

Structure (SMILES)	viability at 48 h, 100 µM
COc1cc([N+](=O)[O-])ccc1OCC(O)CN1CCN(CCO)CC1 (stereo not shown) [Compound 1, 1-(4-(2-Hydroxyethyl)piperazin-1-yl)-3-(2-methoxy-4-nitrophenoxy)propan-2-ol]	112 ± 8%
COc1ccc(OCC(O)CN2CCN(CCO)CC2)c([N+](=O)[O-])c1 (stereo not shown) [Compound 2, 1-(4-(2-Hydroxyethyl)piperazin-1-yl)-3-(4-methoxy-2-nitrophenoxy)propan-2-ol]	111 ± 11%
O=[N+]([O-])c1ccc(OCC(O)CN2CCN(CCO)CC2)c(F)c1 (stereo not shown) [Compound 3, 1-(4-(2-Hydroxyethyl)piperazin-1-yl)-3-(2-fluoro-4-nitrophenoxy)propan-2-ol]	106 ± 11%
OCCN1CCN(CC(O)COc2ccc(F)cc2)CC1 (stereo not shown) [Compound 4, 1-(4-(2-Hydroxyethyl)piperazin-1-yl)-3-(4-fluorophenoxy)propan-2-ol]	112 ± 14%

Tested on: not listed separately
Assay: WST-1 proliferation assay, MRC-5
Assay type: cell-based
Conditions: human, MRC-5 cells (normal lung fibroblasts), vs 0.1% DMSO control = 100%, mean ± standard deviation
Description: as §1, §2

Structure (SMILES)	viability at 48 h, 100 µM
COc1cc([N+](=O)[O-])ccc1OCC(O)CN1CCN(CCO)CC1 (stereo not shown) [Compound 1, 1-(4-(2-Hydroxyethyl)piperazin-1-yl)-3-(2-methoxy-4-nitrophenoxy)propan-2-ol]	111 ± 9%
COc1ccc(OCC(O)CN2CCN(CCO)CC2)c([N+](=O)[O-])c1 (stereo not shown) [Compound 2, 1-(4-(2-Hydroxyethyl)piperazin-1-yl)-3-(4-methoxy-2-nitrophenoxy)propan-2-ol]	105 ± 1%
O=[N+]([O-])c1ccc(OCC(O)CN2CCN(CCO)CC2)c(F)c1 (stereo not shown) [Compound 3, 1-(4-(2-Hydroxyethyl)piperazin-1-yl)-3-(2-fluoro-4-nitrophenoxy)propan-2-ol]	103 ± 6%
OCCN1CCN(CC(O)COc2ccc(F)cc2)CC1 (stereo not shown) [Compound 4, 1-(4-(2-Hydroxyethyl)piperazin-1-yl)-3-(4-fluorophenoxy)propan-2-ol]	103 ± 2%

Tested on: not listed separately
Assay: WST-1 proliferation assay, Jurkat
Assay type: cell-based
Conditions: human, Jurkat cells (acute T-cell leukemia), vs 0.1% DMSO control = 100%, mean ± standard deviation
Description: as §1, §2

Structure (SMILES)	viability at 48 h, 100 µM
COc1cc([N+](=O)[O-])ccc1OCC(O)CN1CCN(CCO)CC1 (stereo not shown) [Compound 1, 1-(4-(2-Hydroxyethyl)piperazin-1-yl)-3-(2-methoxy-4-nitrophenoxy)propan-2-ol]	91 ± 2%
COc1ccc(OCC(O)CN2CCN(CCO)CC2)c([N+](=O)[O-])c1 (stereo not shown) [Compound 2, 1-(4-(2-Hydroxyethyl)piperazin-1-yl)-3-(4-methoxy-2-nitrophenoxy)propan-2-ol]	98 ± 3%
O=[N+]([O-])c1ccc(OCC(O)CN2CCN(CCO)CC2)c(F)c1 (stereo not shown) [Compound 3, 1-(4-(2-Hydroxyethyl)piperazin-1-yl)-3-(2-fluoro-4-nitrophenoxy)propan-2-ol]	92 ± 4%
OCCN1CCN(CC(O)COc2ccc(F)cc2)CC1 (stereo not shown) [Compound 4, 1-(4-(2-Hydroxyethyl)piperazin-1-yl)-3-(4-fluorophenoxy)propan-2-ol]	100 ± 3%

Tested on: Whole blood from healthy human donors
Assay: Dicentric chromosome assay (DCA)
Assay type: cell-based
Conditions: 100 μM; 3 Gy gamma; 60 min pre-exposure; lower concentrations experiment
Description: The radioprotective effect of eight compounds was assessed using the cytogenetic method of DCA. DCA is known for its high sensitivity to radiation exposure and its specificity, and is thus considered a gold standard for biological dosimetry. It is also applicable to reveal the radioprotective potential of substances, as their effect is to protect DNA from forming dicentric chromosomes after IR exposure. This assay included six newly synthesized substances as well as amifostine (WR2721) and its active form (WR1065). WR2721 and WR1065 served as benchmarks, allowing us to measure the radioprotective effect of our compounds against these well-established radioprotectors. Whole blood from healthy human donors was utilized for DCA, and it was irradiated with 3 Gy gamma radiation after exposure to the tested compounds. Each experiment included irradiated and non-irradiated controls. The experiments were conducted at two different concentrations of the substances. For the newly synthesized compounds, 100 μM and an optimal non-toxic concentration which varied between 200–1000 μM were used. […] The results were interpreted as the number of dicentric chromosomes per cell.
To express the radioprotective effect the radioprotection factor (RF) was calculated as the […] (Table 2). RF expresses how many-fold the DC count in the sample decreased compared to the irradiated control.
Blood samples from healthy male donors were taken in heparinized tubes, with informed consent and the approval of a local ethics committee. Blood samples (1 ml) were treated with eight different substances (WR2721, WR1065, and 1–6) in two different concentrations. Non-treated irradiated and non-treated non-irradiated controls were included. All samples were exposed to a single dose of 3 Gy of gamma radiation (at the dose rate of 0.6 Gy min^−1, using the ^60Co Chisobalt, Chirana, Prague, Czech Republic). […] The dose of 3 Gy was selected to ensure a sufficient quantity of dicentric chromosomes in lymphocytes. Immediately after irradiation, the samples were placed in a humidified atmosphere with 5% CO2 at 37 °C for 30 min. Treated and irradiated blood samples were added to T-25 cultivation flasks containing 10 ml RPMI 1640 with 20% fetal bovine serum and 2% phytohaemagglutinin (all Gibco by Thermo Fisher Scientific, Waltham, MA, USA). Colcemid at a final concentration of 0.25 μg ml^−1 (Gibco by Thermo Fisher Scientific, Waltham, MA, USA) was added to each culture tube 48 h after culture initiation. Cells were cultivated for another 2 h and then harvested.
At the harvest time (total time 50 h), cell pellets obtained after centrifugation at 600 × g for 3 min were resuspended and treated with 10 ml of prewarmed 0.075 M solution of potassium chloride (Gibco by Thermo Fisher Scientific, Waltham, MA, USA) for 20 min. After another centrifugation, cells were treated three times with fixative solution consisting of 3 : 1 (v/v) methanol : acetic acid (penta Chemicals, Prague, Czech Republic). Fixed cells were dropped on ice-cold microscope slides, air-dried overnight, and stained with 5% Giemsa solution (P-Lab, Prague, Czech Republic) for 6 min. Prepared slides were evaluated using automated metaphase finding systems. The slides with metaphases were analyzed by Axio Imager 2 (Carl Zeiss Microscopy GmbH, Göttingen, Germany) and Metafer 4 software (MetaSystems Hard & Software GmbH, Altlußheim, Germany). At first, the images of the metaphases in lower magnification were acquired (MSearch TL mode). Following that, the images of good-quality metaphases in higher resolution were acquired (AutoCapt mode). The data obtained were analyzed manually (manual selection of good-quality metaphases and dicentric chromosome detection).

Structure (SMILES)	RF (radioprotection factor)
COc1cc([N+](=O)[O-])ccc1OCC(O)CN1CCN(CCO)CC1 (stereo not shown) [Compound 1, 1-(4-(2-Hydroxyethyl)piperazin-1-yl)-3-(2-methoxy-4-nitrophenoxy)propan-2-ol]	1.42
COc1ccc(OCC(O)CN2CCN(CCO)CC2)c([N+](=O)[O-])c1 (stereo not shown) [Compound 2, 1-(4-(2-Hydroxyethyl)piperazin-1-yl)-3-(4-methoxy-2-nitrophenoxy)propan-2-ol]	1.23
O=[N+]([O-])c1ccc(OCC(O)CN2CCN(CCO)CC2)c(F)c1 (stereo not shown) [Compound 3, 1-(4-(2-Hydroxyethyl)piperazin-1-yl)-3-(2-fluoro-4-nitrophenoxy)propan-2-ol]	2.43
OCCN1CCN(CC(O)COc2ccc(F)cc2)CC1 (stereo not shown) [Compound 4, 1-(4-(2-Hydroxyethyl)piperazin-1-yl)-3-(4-fluorophenoxy)propan-2-ol]	1.65

Same assay, conditions: 500 μM (optimal non-toxic concentration); 3 Gy gamma; 60 min pre-exposure

Structure (SMILES)	RF (radioprotection factor)
COc1cc([N+](=O)[O-])ccc1OCC(O)CN1CCN(CCO)CC1 (stereo not shown) [Compound 1, 1-(4-(2-Hydroxyethyl)piperazin-1-yl)-3-(2-methoxy-4-nitrophenoxy)propan-2-ol]	1.97
COc1ccc(OCC(O)CN2CCN(CCO)CC2)c([N+](=O)[O-])c1 (stereo not shown) [Compound 2, 1-(4-(2-Hydroxyethyl)piperazin-1-yl)-3-(4-methoxy-2-nitrophenoxy)propan-2-ol]	1.97
O=[N+]([O-])c1ccc(OCC(O)CN2CCN(CCO)CC2)c(F)c1 (stereo not shown) [Compound 3, 1-(4-(2-Hydroxyethyl)piperazin-1-yl)-3-(2-fluoro-4-nitrophenoxy)propan-2-ol]	4.16

— PMC11324046, “Second-generation piperazine derivatives as promising radiation countermeasures” (RSC Medicinal Chemistry, 2024)
